What was measured:
[1] = biological target: Human ATX (Homo sapiens (Human), UniProt Q13822); test: Assay A: Biochemical ATX Assay; conditions: recombinant ATX, 18:1 LPC substrate, 18:1 LPA formation; compounds of the invention
Protocol: 5 nM recombinant ATX (Cayman Chemicals) was supplemented to 50 mM Tris buffer (pH 8.0) containing 3 mM KCl, 1 mM CaCl2, 1 mM MgCl2 0.14 mM NaCl, and 0.1% bovine serum albumin. Test compounds were dissolved in DMSO and tested in the range of 0.1 nM to 10 μM. The enzymatic reaction (22.5 μL) was started by addition of 2.5 μL 10 μM 18:1 LPC (Avanti Lipids, Alabaster, Ala., USA). After 2-h incubation at room temperature, the reaction was stopped by addition of 20 μL water containing 500 nM 20:4 LPA as internal standard and 100 μL 1-butanol for extracting LPA. Subsequently, the plates were centrifuged at 4000 rpm, 4° C., for 2 min. The resultant upper butanol phase was directly used for injection at a RapidFire system (Agilent).
The RapidFire autosampler was coupled to a binary pump (Agilent 1290) and a Triple Quad 6500 (ABSciex, Toronto, Canada). This system was equipped with a 10-μL loop, 5 μL Waters Atlantis HILIC cartridge (Waters, Elstree, UK), 90% acetonitrile containing 10 mM ammonium acetate as eluent A and 40% acetonitrile containing 10 mM ammoniumacetate as eluent B. For details see (Bretschneider et al., SLAS Discovery, 2017). 1 The MS was operated in negative mode with a source temperature of 550° C., curtain gas=35, gas 1=65, and gas 2=80. The following transitions and MS parameters (DP: declustering potential and CE: collision energy) for the respective LPAs were determined: 18:1 LPA at 435.2/152.8, DP=−40, CE=−28 and 20:4 LPA at 457.2/152.8, DP=−100, CE=−27).
The formation of 18:1 LPA was monitored and evaluated as ratio to 20:4 LPA.

[2] = biological target: ATX in human whole blood (Homo sapiens (Human), UniProt Q13822); test: Assay B: Whole-Blood ATX Assay; assay type: biochemical; conditions: 1 h at 37° C., 18:2 LPA formation, compounds of the invention
Protocol: ATX is a soluble plasma protein, which is active in heparinized whole blood. Its substrate LPC is highly abundant, its concentration being in the μM range. Therefore, a whole blood assay at physiological substrate concentrations is a highly relevant assay, predictive for the efficacy of ATX inhibitors in vivo.
45 μL human whole-blood was supplemented with 5 μL of the test compound, dissolved in phosphate-buffered saline (concentration range 0.12 nM-100 μM). This mixture was incubated for 1 h at 37° C. and stopped by addition of 100 μL 40 mM disodium hydrogen phosphate buffer containing 30 mM citric acid (pH 4) and 1 μM 17:0 LPA (internal standard). LPA was extracted by addition of 500 μL 1-butanol, followed by 10-min centrifugation at 4000 rpm, 4° C. From the resultant organic supernatant, a 200 μL aliquot was transferred into a 96-deep-well plate and transferred to the RapidFire-based MS/MS measurement.
The RapidFire autosampler was coupled to a binary pump (Agilent 1290) and a Triple Quad 6500 (ABSciex, Toronto, Canada). This system was equipped with a 10-μL loop, 5-μL Waters Atlantis HILIC cartridge (Waters, Elstree, UK), 90% acetonitrile containing 10 mM ammonium acetate as eluent A and 40% acetonitrile containing 10 mM ammoniumacetate as eluent B. For details see (Bretschneider et al., SLAS Discovery, 2017, 22, 425-432). The MS was operated in negative mode with a source temperature of 550° C., curtain gas=35, gas 1=65, and gas 2=80. The following transitions and MS parameters (DP: declustering potential and CE: collision energy) for the respective LPAs were determined: 18:2 LPA at 433.2/152.8, DP=−150, CE=−27 and 17:0 LPA at 423.5/152.8, DP=−100.
The formation of 18:2 LPA was monitored and evaluated as ratio to 17:0 LPA.

[3] = tested on: plasma LPA; test: Assay C: In Vivo, plasma LPA reduction after oral dosing; set-up: species or system rat; conditions: rats, 5 mg/kg, 8 hours post application
Protocol: LPA reduction in vivo is determined by measuring the plasma concentration of LPA after oral dosage of the compounds of the present invention. LPA is a very strong bioactive lipid, which efficiently activates downstream pathways via the LPA-receptors 1-6 in a concentration dependent manner. The pronounced and sustained blockage of the LPA formation via ATX inhibition is assessed by measuring the extent of LPA reduction 8 hours after compound dosage. A high reduction of plasma LPA at 8 h is therefore highly indicative for efficacy and sustained duration of action in vivo as well as sustained target engagement of the LPA receptors.
The test substance was solubilized in 0.5% natrosol supplemented with 0.015% Tween 80 for oral application to rats at a dose of 5 mg/kg. Blood samples were collected before compound administration and 8 hours post application on ice using EDTA as coagulation agent. Subsequently, plasma was prepared by centrifugation and stored until analysis at −20° C.
LPAs from plasma samples were extracted by using the procedure described by Scherer et al. (Clinical chemistry 2009, 55, 1218-22). 35 μL of heparinized plasma was mixed with 200 μL 40 mM disodium hydrogen phosphate buffer containing 30 mM citric acid (pH 4) and 1 μM 17:0 LPA (internal standard). Subsequently, 500 μL butanol was added and shaken vigorously for 10 min. Samples were centrifuged afterwards at 4000 rpm, 4° C., for 10 min. […]
A Triple Quad 6500 (ABSciex, Toronto, Canada) was equipped with an Agilent 1290 LC system (Agilent, Santa Clara, Calif.) a CTC autosampler and an Atlantis 50×2.1-mm, 3-μm HILIC LC column (Waters, Elstree, UK). […] The following LPA species were monitored (DP: declustering potential and CE: collision energy): 16:0 LPA at 409.2/152.8, DP=−150, CE=−28; 18:0 LPA at 437.3/152.8, DP=−60, CE=−28; 18:1 LPA at 435.2/152.8, DP=−40, CE=−28; 18:2 LPA at 433.2/152.8, DP=−150, CE=−28; 20:4 LPA at 457.2/152.8, DP=−100, CE=−29 and 17:0 LPA at 423.5/152.8, DP=−100, CE=−36. LPA depletion in percent was calculated based on the baseline LPA levels before test compound application. […]

[4] = tested on: LPA levels; conditions: as disclosed in ACS Med. Chem. Lett. 2017, 8, 1252-1257; cited from earlier work
[5] = vs baseline, sum of LPA, compounds of the invention

Structure (SMILES) | IC50 [1] [nM] | IC50 [2] [nM] | LPA reduction at 8 h ([3]; prior art compounds of WO2014/139882) [%] | LPA reduction at 8 h [3, 5] [%] | LPA levels in vivo [4]
CC(=O)N1CCN(c2ccc(CNc3ccc(OCc4cc(C#N)cc(OC(F)(F)F)c4)nn3)cc2)CC1 [Example 1.6] | 5 |  |  |  | 
COc1ccc(COc2ccc(NCc3ccc(C4CCN(C(C)=O)CC4)cc3)nn2)cn1 [Example 2.2] | 3 | 38 |  |  | 
CCc1nc2c(C)cc(N3CCN(CC(=O)N4CC(O)C4)CC3)cn2c1N(C)c1nc(-c2ccc(F)cc2)c(C#N)s1 [Example 2 in WO2014/139882, reference compound] |  |  | 58.1 |  | 
COc1ccc(COc2ccc(NCc3ccc(N4CCN(C(C)=O)CC4)cc3)nn2)cn1 [Example 2.1, 1-[4-(4-{[6-(6-Methoxy-pyridin-3-ylmethoxy)-pyridazin-3-ylamino]-methyl}-phenyl)-piperazin-1-yl]-ethanone] | 3 | 33 |  | 98.3 | 
CC(=O)N1CCN(c2ccc(CNc3ccc(OCc4ccccc4)nn3)cc2)CC1 [Example 2.4] | 3 | 73 |  |  | 
O=C(NC[C@@H]1[C@H]2CN(C(=O)OCc3cc(C(F)(F)F)cc(C(F)(F)F)c3)C[C@@H]12)c1ccc2[nH]nnc2c1 |  |  |  |  | significantly reduces LPA levels in vivo
CC(=O)N1CCN(c2ccc(CNc3ccc(OCc4ccc(OC(F)(F)F)nc4)nn3)cc2)CC1 [Example 1.5] | 4 | 9 |  |  | 

More lines, in order of falling IC50 [1], values ahead:

IC50 [1] [nM] | IC50 [2] [nM] | Structure (SMILES) | LPA reduction at 8 h ([3]; prior art compounds of WO2014/139882) [%] | LPA reduction at 8 h [3, 5] [%] | LPA levels in vivo [4]
8 | 186 | COc1cc(COc2ccc(NCc3ccc(N4CCN(C(C)=O)CC4)cc3)nn2)ccn1 [Example 2.3] |  |  | 
6 | 46 | CC(=O)N1CCN(c2ccc(CNc3ccc(OCc4cc(Cl)cc(Cl)c4)nn3)cc2)CC1 [Example 1.1, 1-[4-(4-{[6-(3,5-Dichloro-benzyloxy)-pyridazin-3-ylamino]-methyl}-phenyl)-piperazin-1-yl]-ethanone] |  |  | 
5 | 83 | CC(=O)N1CCN(c2ccc(CNc3ccc(OCc4ccnc(C#N)c4)nn3)cc2)CC1 [Example 1.3] |  |  | 
4 | 201 | CC(=O)N1CCN(c2ccc(CNc3ccc(OCc4cccc(C#N)c4)nn3)cc2)CC1 [Example 1.4] |  | 95.7 | 
4 | 264 | CC(=O)N1CCC(c2ccc(CNc3ccc(OCc4ccccc4)nn3)cc2)CC1 [Example 2.5] |  |  | 
2 | 55 | CC(=O)N1CCN(c2ccc(CNc3ccc(OCc4cncc(C#N)c4)nn3)cc2)CC1 [Example 1.2] |  |  | 

From patent US11104665B2, “Pyridazines” (Boehringer Ingelheim International GmbH, priority 2018, dated 2021)
